This is an account of results in patent EP0904128B1, “COMPOSITION AND SYSTEM FOR IONTOPHORETIC TRANSDERMAL DELIVERY OF DRUGS” (priority 1996, dated 1997).

Like-named read-outs stand apart in the source and are kept apart here. A value given as a limit tells only on which side of the number the result lay.

The conditions of series [1]: experiment 3; for salicylate release / permeation through epidermis: epidermis between fiber disc and phosphate buffer pH 7.4 (6 mM, µ=0.2), zero-order after lag time.
Description: Drug release in vitro from the fiber discs at 37 °C was tested in Franz diffusion cells (Crown Glass Co. Inc., Somerville, NJ) (Fig. 3). […] The fiber discs 10 were placed in the diffusion cells so that one side of the anionic ion-exchange fiber was exposed to the dissolution medium. The dissolution medium was pH 7.4 phosphate buffer saline (PBS, 143 mM, µ=0.15 (µ = ionic strength)) in experiment 1 and pH 7.4 phosphate buffer (6 mM, µ=0.2) in experiments 2 and 3. To assess the effect of the skin on drug release (experiment 3), a piece of epidermis 13 was placed between the fiber disc and buffer solution. At fixed times, samples of 250 µl were withdrawn and the drug concentration in the samples were determined by using HPLC (Beckman System Gold, Beckman Instrument, San Ramon, CA) with a Supelcosil LC-18-DB column (5 µm, 150 x 4.6 mm) (Supelco Inc., Rohm and Haab Co., Bellefonte, PA). The mobile phase was a binary mixture of methanol (40 % v/v) and pH 7.0 phosphate buffer (60 %). The detection wavelenght was 298 nm, and the flow rate of 1.0 ml/min, the retention time was 2.6 min.
The conditions of series [2]: pH 7.0 phosphate buffer (200 mM) containing 6.27 g/l NaCl; donor solution 50 µg/ml; Hirvonen 1994; cited from earlier work.
For series [3] the following is noted: human, pH 7.4. The method, then: Electrodes for iontophoresis were prepared from silver wire and silver chloride (Aldrich-Chemie, Steinheim, Germany). Direct current (0,5 mA/cm^2) during iontophoresis was delivered by HP 6181C DC current source (Hewlett-Packard, Cupertino, CA) from the electrodes to the diffusion chambers via salt bridges. Salt bridges were prepared by injecting 1 M NaCl-gel (3 % agar) inside plastic tubing (diameter 4 mm, length ca. 15 cm). […] Transdermal permeation of ions increase most during iontophoresis due to electrostatic repulsion. […] Because Ag/AgCl-electrodes cause precipitation of phosphates, we used HEPES-buffer at pH 7,4 during the iontophoresis experiments. […] The chambers were connected in series as constant DC-current was used.

For series [4] the following is noted: in vivo; cited from earlier work.
The conditions of series [5]: for Tacrine permeation Flux: Average ± standard deviation.

`O=C([O-])c1ccccc1O.[Na+]` [salicylate, Sodium salicylate]: the “salicylate release / permeation through epidermis” value in series [1] is “about 0.08 µg/h”; in series [1] (listed as Salicylate), 0.08 µg/h. In series [1] (with skin), the “Lag time before steady state release” value is “about 2 h”. Moreover, the “in vitro permeability of anionic salicylate through skin” value in series [2] is given as “about 0.34 µg/cm^2/h”.

With `Nc1c2c(nc3ccccc13)CCCC2` [tacrine, 9-amino-1,2,3,4-tetrahydroacridine], the “iontophoretic delivery compared to passive permeation from the ion-exchange fiber” value in series [3] (3.5 %) was > 10 000 -fold. Further, the “lag-time of drug permeation” value in series [3] (5 %) was “about 0,5 h”. Moreover, in series [4], the “Clearance CL” value is reported as “about 150 l/h”, the “elimination half-life T1/2” value was 1,4 - 3,6 h and the peroral bioavailability is recorded as 5 - 35%. In addition, the “Tacrine permeation Flux” value in series [5] (Passive permeation (3.5 % in ion-exchange fiber)) was determined as 0.003±0.0006 µg/ h per cm^2. The “Tacrine permeation Flux” value in series [5] (Passive permeation (5 % solution)) is 2.95±0.66 µg/ h per cm^2. Moreover, the Lag-time of permeation result in series [5] (human, 5 %, pH 7) is recorded as “ca. 24 h”. Moreover, in series [5] (passive, 3,5 % tacrine in cationic ion-exchange fiber), the “Delivery of tacrine across the skin from the cationic ion-exchange fiber” value is given as “about 0,003 g/h per cm^2”. For the same compound, the “Steady-state flux of tacrine across human skin in vitro” value in series [5] (passive, 5 % solution, pH 7,4) is given as 2,95 g/h per cm^2.
